In the supplement of paper PMC8882468:
± gives the standard deviation of the averaged measurements.

The molecules below were run on HCI-001 (organoid from a triple-negative breast cancer xenograft) (assay: CTG-3D luminescence at 96 h relative to day-0 seeding control (ratio to day 0); higher = more growth / less cytotoxicity; PDxO 3D drug screen, 96 h, CTG-3D normalised to day-0 seeding control.). Conditions: 625 fM; days in culture: 269.

| Compound | CTG-3D luminescence at 96 h |
| --- | --- |
| CN(Cc1cnc2nc(N)nc(N)c2n1)c1ccc(C(=O)N[C@@H](CCC(=O)O)C(=O)O)cc1 [methotrexate] | 1.5 |
| C=CCn1c(=O)c2cnc(Nc3ccc(N4CCN(C)CC4)cc3)nc2n1-c1cccc(C(C)(C)O)n1 [adavosertib] | 1.65 |
| CC(C)(C(=O)NCC(F)(F)C(F)(F)F)C(=O)N[C@@H]1C(=O)Nc2ccccc2-c2ccccc21 | 1.58 |
| C[C@@H]1COCCN1c1cc(C2([S@](C)(=N)=O)CC2)nc(-c2cc[nH]c3nccc2-3)n1 [ceralasertib] | 1.54 |
| CCN1CCN(Cc2ccc(Nc3ncc(F)c(-c4cc(F)c5nc(C)n(C(C)C)c5c4)n3)nc2)CC1 [abemaciclib] | 1.67 |

Same assay, conditions: 625 fM; days in culture: 327

| Compound | CTG-3D luminescence at 96 h |
| --- | --- |
| COc1cccc2c1C(=O)c1c(O)c3c(c(O)c1C2=O)C[C@@](O)(C(=O)CO)C[C@@H]3O[C@H]1C[C@H](N)[C@H](O)[C@H](C)O1 [doxorubicin] | 1.5 |
| O=C(O)C1(C(=O)O)CCC1.[NH2-].[NH2-].[Pt+2] [carboplatin] | 1.83 |
| NC(=O)Nc1cc(-c2cccc(F)c2)sc1C(=O)N[C@H]1CCCNC1 [AZD7762] | 1.6 |
| Nc1ccn([C@@H]2O[C@H](CO)[C@@H](O)C2(F)F)c(=O)n1 [gemcitabine] | 1.83 |
| CC1(C)CCC(c2ccc(Cl)cc2)=C(CN2CCN(c3ccc(C(=O)NS(=O)(=O)c4ccc(N[C@H](CCN5CCOCC5)CSc5ccccc5)c(S(=O)(=O)C(F)(F)F)c4)cc3)CC2)C1 [navitoclax] | 2.04 |
| CN(Cc1cnc2nc(N)nc(N)c2n1)c1ccc(C(=O)N[C@@H](CCC(=O)O)C(=O)O)cc1 [methotrexate] | 1.69 |
| C=CCn1c(=O)c2cnc(Nc3ccc(N4CCN(C)CC4)cc3)nc2n1-c1cccc(C(C)(C)O)n1 [adavosertib] | 1.68 |
| CC(C)(C(=O)NCC(F)(F)C(F)(F)F)C(=O)N[C@@H]1C(=O)Nc2ccccc2-c2ccccc21 | 1.83 |
| C[C@@H]1COCCN1c1cc(C2([S@](C)(=N)=O)CC2)nc(-c2cc[nH]c3nccc2-3)n1 [ceralasertib] | 1.44 |
| CCN1CCN(Cc2ccc(Nc3ncc(F)c(-c4cc(F)c5nc(C)n(C(C)C)c5c4)n3)nc2)CC1 [abemaciclib] | 1.75 |

Same assay, conditions: 625 fM; days in culture: 346

| Compound | CTG-3D luminescence at 96 h |
| --- | --- |
| COc1cccc2c1C(=O)c1c(O)c3c(c(O)c1C2=O)C[C@@](O)(C(=O)CO)C[C@@H]3O[C@H]1C[C@H](N)[C@H](O)[C@H](C)O1 [doxorubicin] | 1.14 |
| O=C(O)C1(C(=O)O)CCC1.[NH2-].[NH2-].[Pt+2] [carboplatin] | 1.35 |
| NC(=O)Nc1cc(-c2cccc(F)c2)sc1C(=O)N[C@H]1CCCNC1 [AZD7762] | 1.21 |
| Nc1ccn([C@@H]2O[C@H](CO)[C@@H](O)C2(F)F)c(=O)n1 [gemcitabine] | 1.1 |
| CC1(C)CCC(c2ccc(Cl)cc2)=C(CN2CCN(c3ccc(C(=O)NS(=O)(=O)c4ccc(N[C@H](CCN5CCOCC5)CSc5ccccc5)c(S(=O)(=O)C(F)(F)F)c4)cc3)CC2)C1 [navitoclax] | 1.3 |
| CN(Cc1cnc2nc(N)nc(N)c2n1)c1ccc(C(=O)N[C@@H](CCC(=O)O)C(=O)O)cc1 [methotrexate] | 1.2 |
| C=CCn1c(=O)c2cnc(Nc3ccc(N4CCN(C)CC4)cc3)nc2n1-c1cccc(C(C)(C)O)n1 [adavosertib] | 1.33 |
| CC(C)(C(=O)NCC(F)(F)C(F)(F)F)C(=O)N[C@@H]1C(=O)Nc2ccccc2-c2ccccc21 | 1.29 |
| C[C@@H]1COCCN1c1cc(C2([S@](C)(=N)=O)CC2)nc(-c2cc[nH]c3nccc2-3)n1 [ceralasertib] | 1.26 |
| CCN1CCN(Cc2ccc(Nc3ncc(F)c(-c4cc(F)c5nc(C)n(C(C)C)c5c4)n3)nc2)CC1 [abemaciclib] | 1.19 |

Same assay, conditions: 625 fM; days in culture: 364

| Compound | CTG-3D luminescence at 96 h |
| --- | --- |
| COc1cccc2c1C(=O)c1c(O)c3c(c(O)c1C2=O)C[C@@](O)(C(=O)CO)C[C@@H]3O[C@H]1C[C@H](N)[C@H](O)[C@H](C)O1 [doxorubicin] | 1.49 |
| O=C(O)C1(C(=O)O)CCC1.[NH2-].[NH2-].[Pt+2] [carboplatin] | 1.51 |
| NC(=O)Nc1cc(-c2cccc(F)c2)sc1C(=O)N[C@H]1CCCNC1 [AZD7762] | 1.71 |
| Nc1ccn([C@@H]2O[C@H](CO)[C@@H](O)C2(F)F)c(=O)n1 [gemcitabine] | 1.33 |
| CC1(C)CCC(c2ccc(Cl)cc2)=C(CN2CCN(c3ccc(C(=O)NS(=O)(=O)c4ccc(N[C@H](CCN5CCOCC5)CSc5ccccc5)c(S(=O)(=O)C(F)(F)F)c4)cc3)CC2)C1 [navitoclax] | 1.63 |
| CN(Cc1cnc2nc(N)nc(N)c2n1)c1ccc(C(=O)N[C@@H](CCC(=O)O)C(=O)O)cc1 [methotrexate] | 1.64 |
| C=CCn1c(=O)c2cnc(Nc3ccc(N4CCN(C)CC4)cc3)nc2n1-c1cccc(C(C)(C)O)n1 [adavosertib] | 1.6 |
| CC(C)(C(=O)NCC(F)(F)C(F)(F)F)C(=O)N[C@@H]1C(=O)Nc2ccccc2-c2ccccc21 | 1.4 |
| C[C@@H]1COCCN1c1cc(C2([S@](C)(=N)=O)CC2)nc(-c2cc[nH]c3nccc2-3)n1 [ceralasertib] | 1.52 |
| CCN1CCN(Cc2ccc(Nc3ncc(F)c(-c4cc(F)c5nc(C)n(C(C)C)c5c4)n3)nc2)CC1 [abemaciclib] | 1.72 |

These molecules were tested on HCI-011.E2 (organoid from an ER-positive breast cancer xenograft) in the same assay as above. Conditions: 12.5 pM.

| Compound | CTG-3D luminescence at 96 h |
| --- | --- |
| COc1cccc2c1C(=O)c1c(O)c3c(c(O)c1C2=O)C[C@@](O)(C(=O)CO)C[C@@H]3O[C@H]1C[C@H](N)[C@H](O)[C@H](C)O1 [doxorubicin] | 1.59 ± 0.072 |
| O=C(O)C1(C(=O)O)CCC1.[NH2-].[NH2-].[Pt+2] [carboplatin] | 1.65 ± 0.12 |
| NC(=O)Nc1cc(-c2cccc(F)c2)sc1C(=O)N[C@H]1CCCNC1 [AZD7762] | 1.57 ± 0.43 |
| Nc1ccn([C@@H]2O[C@H](CO)[C@@H](O)C2(F)F)c(=O)n1 [gemcitabine] | 1.72 ± 0.47 |
| CC1(C)CCC(c2ccc(Cl)cc2)=C(CN2CCN(c3ccc(C(=O)NS(=O)(=O)c4ccc(N[C@H](CCN5CCOCC5)CSc5ccccc5)c(S(=O)(=O)C(F)(F)F)c4)cc3)CC2)C1 [navitoclax] | 1.62 ± 0.079 |
| CN(Cc1cnc2nc(N)nc(N)c2n1)c1ccc(C(=O)N[C@@H](CCC(=O)O)C(=O)O)cc1 [methotrexate] | 1.46 ± 0.36 |
| C=CCn1c(=O)c2cnc(Nc3ccc(N4CCN(C)CC4)cc3)nc2n1-c1cccc(C(C)(C)O)n1 [adavosertib] | 1.73 ± 0.27 |
| CC(C)(C(=O)NCC(F)(F)C(F)(F)F)C(=O)N[C@@H]1C(=O)Nc2ccccc2-c2ccccc21 | 1.55 ± 0.018 |
| C[C@@H]1COCCN1c1cc(C2([S@](C)(=N)=O)CC2)nc(-c2cc[nH]c3nccc2-3)n1 [ceralasertib] | 1.56 ± 0.074 |
| CCN1CCN(Cc2ccc(Nc3ncc(F)c(-c4cc(F)c5nc(C)n(C(C)C)c5c4)n3)nc2)CC1 [abemaciclib] | 1.49 ± 0.15 |

Same assay, conditions: 12.5 pM; days in culture: 74

| Compound | CTG-3D luminescence at 96 h |
| --- | --- |
| COc1cccc2c1C(=O)c1c(O)c3c(c(O)c1C2=O)C[C@@](O)(C(=O)CO)C[C@@H]3O[C@H]1C[C@H](N)[C@H](O)[C@H](C)O1 [doxorubicin] | 2.69 |
| O=C(O)C1(C(=O)O)CCC1.[NH2-].[NH2-].[Pt+2] [carboplatin] | 2.31 |
| NC(=O)Nc1cc(-c2cccc(F)c2)sc1C(=O)N[C@H]1CCCNC1 [AZD7762] | 2.04 |
| Nc1ccn([C@@H]2O[C@H](CO)[C@@H](O)C2(F)F)c(=O)n1 [gemcitabine] | 2.11 |
| CC1(C)CCC(c2ccc(Cl)cc2)=C(CN2CCN(c3ccc(C(=O)NS(=O)(=O)c4ccc(N[C@H](CCN5CCOCC5)CSc5ccccc5)c(S(=O)(=O)C(F)(F)F)c4)cc3)CC2)C1 [navitoclax] | 2.04 |
| CN(Cc1cnc2nc(N)nc(N)c2n1)c1ccc(C(=O)N[C@@H](CCC(=O)O)C(=O)O)cc1 [methotrexate] | 1.97 |
| C=CCn1c(=O)c2cnc(Nc3ccc(N4CCN(C)CC4)cc3)nc2n1-c1cccc(C(C)(C)O)n1 [adavosertib] | 1.66 |
| CC(C)(C(=O)NCC(F)(F)C(F)(F)F)C(=O)N[C@@H]1C(=O)Nc2ccccc2-c2ccccc21 | 2.34 |
| C[C@@H]1COCCN1c1cc(C2([S@](C)(=N)=O)CC2)nc(-c2cc[nH]c3nccc2-3)n1 [ceralasertib] | 2.18 |
| CCN1CCN(Cc2ccc(Nc3ncc(F)c(-c4cc(F)c5nc(C)n(C(C)C)c5c4)n3)nc2)CC1 [abemaciclib] | 1.84 |

Same assay, conditions: 0.00025 µM

| Compound | CTG-3D luminescence at 96 h |
| --- | --- |
| COc1cccc2c1C(=O)c1c(O)c3c(c(O)c1C2=O)C[C@@](O)(C(=O)CO)C[C@@H]3O[C@H]1C[C@H](N)[C@H](O)[C@H](C)O1 [doxorubicin] | 1.65 ± 0.22 |
| O=C(O)C1(C(=O)O)CCC1.[NH2-].[NH2-].[Pt+2] [carboplatin] | 1.72 ± 0.4 |
| NC(=O)Nc1cc(-c2cccc(F)c2)sc1C(=O)N[C@H]1CCCNC1 [AZD7762] | 1.86 ± 0.45 |
| Nc1ccn([C@@H]2O[C@H](CO)[C@@H](O)C2(F)F)c(=O)n1 [gemcitabine] | 1.78 ± 0.047 |
| CC1(C)CCC(c2ccc(Cl)cc2)=C(CN2CCN(c3ccc(C(=O)NS(=O)(=O)c4ccc(N[C@H](CCN5CCOCC5)CSc5ccccc5)c(S(=O)(=O)C(F)(F)F)c4)cc3)CC2)C1 [navitoclax] | 1.82 ± 0.28 |
| CN(Cc1cnc2nc(N)nc(N)c2n1)c1ccc(C(=O)N[C@@H](CCC(=O)O)C(=O)O)cc1 [methotrexate] | 1.77 ± 0.6 |
| C=CCn1c(=O)c2cnc(Nc3ccc(N4CCN(C)CC4)cc3)nc2n1-c1cccc(C(C)(C)O)n1 [adavosertib] | 1.67 ± 0.39 |
| CC(C)(C(=O)NCC(F)(F)C(F)(F)F)C(=O)N[C@@H]1C(=O)Nc2ccccc2-c2ccccc21 | 1.61 ± 0.057 |
| C[C@@H]1COCCN1c1cc(C2([S@](C)(=N)=O)CC2)nc(-c2cc[nH]c3nccc2-3)n1 [ceralasertib] | 1.76 ± 0.52 |
| CCN1CCN(Cc2ccc(Nc3ncc(F)c(-c4cc(F)c5nc(C)n(C(C)C)c5c4)n3)nc2)CC1 [abemaciclib] | 1.5 ± 0.36 |

Same assay, conditions: 0.00025 µM; days in culture: 74

| Compound | CTG-3D luminescence at 96 h |
| --- | --- |
| COc1cccc2c1C(=O)c1c(O)c3c(c(O)c1C2=O)C[C@@](O)(C(=O)CO)C[C@@H]3O[C@H]1C[C@H](N)[C@H](O)[C@H](C)O1 [doxorubicin] | 1.99 |
| O=C(O)C1(C(=O)O)CCC1.[NH2-].[NH2-].[Pt+2] [carboplatin] | 2.54 |
| NC(=O)Nc1cc(-c2cccc(F)c2)sc1C(=O)N[C@H]1CCCNC1 [AZD7762] | 2.16 |
| Nc1ccn([C@@H]2O[C@H](CO)[C@@H](O)C2(F)F)c(=O)n1 [gemcitabine] | 2.93 |
| CC1(C)CCC(c2ccc(Cl)cc2)=C(CN2CCN(c3ccc(C(=O)NS(=O)(=O)c4ccc(N[C@H](CCN5CCOCC5)CSc5ccccc5)c(S(=O)(=O)C(F)(F)F)c4)cc3)CC2)C1 [navitoclax] | 2.51 |
| CN(Cc1cnc2nc(N)nc(N)c2n1)c1ccc(C(=O)N[C@@H](CCC(=O)O)C(=O)O)cc1 [methotrexate] | 2.4 |
| C=CCn1c(=O)c2cnc(Nc3ccc(N4CCN(C)CC4)cc3)nc2n1-c1cccc(C(C)(C)O)n1 [adavosertib] | 2.29 |
| CC(C)(C(=O)NCC(F)(F)C(F)(F)F)C(=O)N[C@@H]1C(=O)Nc2ccccc2-c2ccccc21 | 1.83 |
| C[C@@H]1COCCN1c1cc(C2([S@](C)(=N)=O)CC2)nc(-c2cc[nH]c3nccc2-3)n1 [ceralasertib] | 2.33 |
| CCN1CCN(Cc2ccc(Nc3ncc(F)c(-c4cc(F)c5nc(C)n(C(C)C)c5c4)n3)nc2)CC1 [abemaciclib] | 2.83 |
